Values joined by “and” are separate entries in the source; they are usually repeats but may differ in a detail not shown here. Equal values may be shown once. “Also recorded” adds a separate entry of the source. Read-outs that look alike come from different tables or passages of the source.
Tests used:
[1] = system: myeloid P39 cell line; assay: Proliferation, clonogenicity and apoptosis in P39 cells; assay type: cell-based, human; conditions: for effect on proliferation of busulphan treated P39 cells ([^3H]thymidine incorporation) / effect on the effect of busulphan on clonogenic capacity of P39 cells / effect on levels of apoptosis induced by busulphan in P39 cells: pretreatment; for effect on the effect of busulphan on clonogenic capacity of P39 cells: busulphan 10, 20 or 40 μg/ml 4 hours; for effect on levels of apoptosis induced by busulphan in P39 cells: data not shown
Method: (§1) The P39 cell line was kindly provided by Prof Y. Yoshida, Center for South East Asian Studies, Kyoto University, Kyoto, Japan. Cells were cultured in RPMI-1640 medium supplemented with 10% heat inactivated fetal bovine serum (FBS), penicillin (25 IU/ml) and streptomycin (25 μg/ml) at 37° C. in a humidified 5% CO2 atmosphere. Exponentially growing cells were used in all experiments. Cells were incubated with N-acetyl-L-cysteine (1 mM) or L-buthionine-[S,R]-sulfoximine (50 μM) for 16 to 18 hours and then with busulphan in final concentrations of 10, 20 or 40 μg/ml for 4 hours. After incubation, cells were washed and re-cultured in busulphan-free medium for 72 hours.
Proliferation was assessed using the [^3H]thymidine incorporation assay. Clonogenic capacity was determined in 0.9% methylcellulose and apoptosis with morphology in May-Grünwald-Giemsa staining as described in (Hassan, Z., Hassan, M., and Hellstrom-Lindberg, E. The pharmacodynamic effect of busulfan in the P39 myeloid cell line in vitro. Leukemia, 15: 1240-1247, 2001).

[2] = system: CFU-GM; assay: Busulphan-induced myelosuppression in mice with GSH modulators, CFU-GM assay; assay type: in vivo, Balb/c mice; conditions: for effect of combination on the myelosuppressive effect of busulphan: NAC 1.38 mmol/kg orally or BSO 0.93 mmol/kg ip before busulphan
Method: Balb/c mice were purchased from B&K Universal Limited, Sweden. Female mice were 6 to 12 weeks old with a weight ranging from 20 to 24 g. Local animal ethical committee approved animals housing conditions and experimental design. Animals were fed with standard pelleted food and water ad libitum. […] Treatment consisted of N-acetyl-L-cysteine (1.38±0.07 mmol/kg) orally or L-buthionine-[S,R]-sulfoximine (0.93±0.03 mmol/kg) intraperitoneally followed by liposomal busulphan (37±1.4 mg/kg) intraperitoneally. Animals were sacrificed at day 1, 3, 6, 9 or 12 after the last dose of treatment.
Liposomal busulphan was used in the in vivo study and prepared as described in example 1. Liposomal busulphan was prepared freshly before each experiment and stored in refrigerator until use.
(§2) CD34+ cells were treated with NAC, BSO, DMSO or busulphan alone or in combinations, washed and 2000 cells were plated in 1.1 ml of MethoCult™ GF H4434 in 35 mm Petri dishes in triplicates. Colonies were scored on day 14 using an inverted microscope. Murine bone marrow was harvested on day 1, 3, 6, 9 or 12 after the last dose of the treatment. Control group and each treatment group consisted of a minimum of three animals at each time point. Mice were sacrificed under general anaesthesia. Both femurs were removed and bone marrow was flushed out under sterile conditions. Cells were counted in Türk solution and nucleated cells (0.5×10^5) were plated in 1.1 ml of MethoCult™ GF M3534 in 35 mm Petri dishes in triplicates. The plates were placed in incubator (37° C., 5% CO2 and 100% humidity). CFU-GM, equal to or more than 50 cells, were counted on the day 7 using an inverted microscope.

[3] = system: GSH intracellular level of P39 cells; assay: GSH assay in P39 cells after NAC or BSO; assay type: cell-based, human
Method: as §1
(§3) Intracellular concentrations of GSH were determined using the enzymatic assay according to Tietze (Tietze, F. Enzymic method for quantitative determination of nanogram amounts of total and oxidized glutathione: applications to mammalian blood and other tissues. Anal Biochem, 27: 502-522., 1969). Total cellular protein was assessed according to Lowry after dissolving the precipitate in 1M NaOH (Lowry, O. H., Rosebrough, N. J., Farr, A. L., and Randall, R. J. Protein measurement with the folin phenol reagent. J Biol Chem, 193: 265-275., 1951)

[4] = system: CFU-GM from normal CD34+ hematopoietic progenitor cells; assay: Clonogenic assay of CD34+ cells, CFU-GM (Example 11); assay type: cell-based, human; conditions: for effect alone on colony formation of CFU-GM or erythroid colonies / effect on busulphan-induced inhibition of colony formation of CFU-GM or erythroid colonies: CD34+ cells; for effect on busulphan-induced inhibition of colony formation of CFU-GM or erythroid colonies: preincubation then busulphan 4.5 or 10 μg/ml for 4 hours
Method: (§4) Ten healthy volunteers were recruited after a medical interview. The study followed the guidelines of the local authorities and was approved by the local ethical committee. […] CD34+ cells were separated on a MACS system by positive selection using CD34+ Separation Kit according to the manufacturer's instructions. Cells were incubated in RPMI-1640 medium supplemented with 10% heat inactivated fetal bovine serum at 37° C. in a humidified 5% CO2 atmosphere. Cells used for pharmacodynamic study were incubated in busulphan of final concentrations of 1, 2.5, 5, 10, 20, 40 or 60 μg/ml for 2, 4 or 8 hours. Cells used for the GSH modulation part were treated with N-acetyl-L-cysteine (NAC) (1 mM) or L-buthionine-[S,R]-sulfoximine (BSO) (50 μM) for 16 to 18 hours, followed by busulphan in final concentrations of 4.5 or 10 μg/ml for 4 hours. After incubation, cells were washed and plated for clonogenic assay.
as §2

[5] = system: GSH intracellular content of CD34+ cells; assay: GSH assay in CD34+ cells after NAC or BSO; assay type: cell-based, human; conditions: preincubation 16 to 18 hours, NAC 1 mM or BSO 50 μM
Method: as §4, with “After incubation, cells were washed and plated for clonogenic assay.” left out
as §3

[6] = NAC therapy during conditioning prior to allogeneic SCT: liver function, VOD, course of transplantation (Example 12)
From the text: Ten patients, who underwent allogeneic stem cell transplantation (SCT) were included in the study. Six patients were transplanted with stem cells from matched unrelated donors, three with stem cells from HLA (Human Leukocyte Antigen) identical sibling donors and one with cord blood. The patients were included on the basis of high risk for hepatic toxicity. […] All patients had been tested negative for viral hepatitis B and C during pre-transplantation evaluation.
The initial busulphan dose given to these patients was 4 mg/kg/day. Busulphan was given twice daily. In cases of high busulphan serum concentrations the dose was reduced during conditioning as described below. […] Nine patients were given NAC during conditioning with busulphan. Treatment with NAC was given once daily as a three-hour infusion, 100 mg per kg body weight starting six hours after the previous busulphan dose and ending three hours before the following dose. The number of NAC doses given during and after busulphan treatment among the patients is described in Table 9. […] When restarted, NAC was administered not earlier than twelve hours after the end of cyclophosphamide infusion. The treatment was continued until elevated liver transaminases were normalized or, if normal transaminases at initiation of therapy, until conditioning was completed.
Tissue typing, conditioning, GVHD prophylaxis and infectious prophylaxis were performed as generally known to the skilled person. In short, the patients were treated in reversed isolation, immunosuppression consisted of four doses of methotrexate combined with cyclosporine and antithymocyte globuline, (Thymoglobulin, Sangstadt, Lyon, France), was given to recipients of unrelated stem cells.

[7] = Busulphan AUC before and after NAC in patients (Example 12); assay type: in vivo, human patients; conditions: for AUC: plasma
Method: Busulphan was given twice daily.
Busulphan was determined using gas chromatography with electron capture detector. Internal standard (1,5-bis(methanesulphonyloxy) pentane) was added to 0.5 ml plasma. Busulphan and internal standard were converted to 1,4-diiodobutane and 1,5-diiodopentane, respectively.

[8] = system: Erythroid colonies from normal CD34+ hematopoietic progenitor cells; assay: Clonogenic assay of CD34+ cells, erythroid colonies (Example 11); assay type: cell-based, human; conditions: bone marrow donors BM 1-5 and Mean
Method: as §4
CD34+ cells were treated with NAC, BSO, DMSO or busulphan alone or in combinations, washed and 2000 cells were plated in 1.1 ml of MethoCult™ GF H4434 in 35 mm Petri dishes in triplicates. Colonies were scored on day 14 using an inverted microscope. […] Cells were counted in Türk solution and nucleated cells (0.5×10^5) were plated in 1.1 ml of MethoCult™ GF M3534 in 35 mm Petri dishes in triplicates. […] CFU-GM, equal to or more than 50 cells, were counted on the day 7 using an inverted microscope.

[9] = 25° C.; cited from earlier work
[10] = Half-life of busulphan in RPMI-1640 medium (in vitro pharmacokinetics); assay type: physicochemical; conditions: 37° C.
[11] = system: GSH in murine hepatocytes; conditions: cited from earlier work
[12] = After NAC therapy, one line per patient
[13] = After conditioning, one line per patient

SMILES: CCCCS(=N)(=O)CC[C@H](N)C(=O)O (stereo partly drawn) [BSO, L-buthionine-[S,R]-sulfoximine]
- decrease of clonogenic capacity of P39 cells ([1]; alone, immediately at the end of incubation, full recovery after 24 hours): 50%
- combined effect with busulphan on P39 cells ([1]; busulphan 10 μg/ml, immediately after the end of incubation): Additive effect
- effect on proliferation of busulphan treated P39 cells ([^3H]thymidine incorporation) [1]: did not influence the proliferation
- effect on the effect of busulphan on clonogenic capacity of P39 cells [1]: neither NAC nor BSO influenced
- effect on levels of apoptosis induced by busulphan in P39 cells [1]: did not change the levels of apoptosis
- effect alone on CFU-GM formation compared to the control group [2]: Neither NAC nor BSO influenced
- effect of combination on the myelosuppressive effect of busulphan [2]: did not change the level of myelosuppression
- decrease of GSH compared to cells cultured in medium ([3]; BSO 50 μM 16 to 18 hours): 80%
- effect alone on colony formation of CFU-GM or erythroid colonies [4]: did not influence
- effect on busulphan-induced inhibition of colony formation of CFU-GM or erythroid colonies [4]: Neither did preincubation of CD34+ cells with BSO change; also recorded: no additive effect
- GSH intracellular content compared to CD34+ cells incubated in medium [5]: 50±9% and 50%

SMILES: CC(=O)N[C@@H](CS)C(=O)O [NAC, N-acetyl-L-cysteine]
- ALT [6, 12]: 0.77 ukat/L and 1.19 ukat/L and 0.61 ukat/L and 0.52 ukat/L
- AST [6, 12]: 0.29 ukat/L and 0.33 ukat/L and 0.42 ukat/L and 0.49 ukat/L
- Bilirubin [6, 12]: 9 µmol/L and 19 µmol/L and 7 µmol/L and 6 µmol/L
- ALT [6, 13]: 4.11 ukat/L and 3.45 ukat/L and 0.78 ukat/L and 2.24 ukat/L
- AST [6, 13]: 1.76 ukat/L and 1.50 ukat/L and 0.40 ukat/L and 0.82 ukat/L
- Bilirubin [6, 13]: 4 µmol/L and 12 µmol/L and 11 µmol/L and 6 µmol/L
- ALT ([6]; Before NAC therapy, one line per patient, normal range <0.8): 1.51 ukat/L and 2.25 ukat/L and 0.59 ukat/L and 8.10 ukat/L
- AST ([6]; Before NAC therapy, one line per patient, normal range <0.80): 0.85 ukat/L and 0.96 ukat/L and 0.38 ukat/L and 11.2 ukat/L
- Bilirubin ([6]; Before NAC therapy, one line per patient, normal range <26): 4 µmol/L and 5 µmol/L and 8 µmol/L and 3 µmol/L
- Engraftment WBC day, ≧0.5 × 10^9/L ([6]; Day of SCT = day 0, one line per patient): 13 day (2×) and 12 day (3×) and 15 day and 24 day and 10 day and 14 day and 16 day
- First day of WBC ≦0.5 × 10^9/L ([6]; Day of SCT = day 0, one line per patient, NAC during conditioning): 1 day and −1 day (2×) and −3 day and 0 day and 4 day and 5 day and 6 day and 2 day and −2 day
- liver transferases after treatment in patients elevated at initiation ([6]; in vivo): less elevated test results after treatment
- side effects related to the NAC infusions ([6]; in vivo): no side effects related to the NAC infusions were observed
- Chimerism at 1 month post SCT ([6]; one line per patient): 100% donor
- Patient outcome ([6]; one line per patient): Died day
- Recurrence of the malignancy ([6]; one line per patient): No (9×) and 15 mo after
- neutropenia ([6]; ten patients): Neutropenia developed in all patients
- VOD or fatal liver toxicity ([6]; ten patients at high risk of VOD): None of the patients developed VOD or fatal liver toxicity
- donor origin of hematopoietic cells (CD3+, Cd19+, CD45+) in peripheral blood ([6]; three months after SCT, five patients): 100%
- effect on proliferation of busulphan treated P39 cells ([^3H]thymidine incorporation) [1]: did not influence the proliferation
- effect on the effect of busulphan on clonogenic capacity of P39 cells [1]: neither NAC nor BSO influenced
- effect on levels of apoptosis induced by busulphan in P39 cells [1]: did not change the levels of apoptosis
- effect on busulphan serum concentrations ([7]; human, in vivo): not affected
- effect alone on CFU-GM formation compared to the control group [2]: Neither NAC nor BSO influenced
- effect of combination on the myelosuppressive effect of busulphan [2]: did not significantly influence
- increase of GSH intracellular level compared to cells cultured in medium ([3]; NAC 1 mM 16 to 18 hours): 10%
- effect alone on colony formation of CFU-GM or erythroid colonies [4]: did not influence
- effect on busulphan-induced inhibition of colony formation of CFU-GM or erythroid colonies [4]: did not affect
- GSH intracellular content compared to CD34+ cells incubated in medium [5]: 150±30%

SMILES: CS(=O)(=O)OCCCCOS(C)(=O)=O [busulphan, 1,4-bis-(methanesulphonyloxy)butan]
- I-AUC50 (AUC inhibiting colony formation by 50%) [8]: 31.54 µg·h/mL and 18.13 µg·h/mL and 24.68 µg·h/mL and 30.12 µg·h/mL and 26.96 µg·h/mL
- I-AUC50 (AUC inhibiting colony formation by 50%) ([8]; mean): 26.29 µg·h/mL
- water solubility [9]: less than 1 microgram/ml
- half-life [10]: 16 h
- k (C=C0.e^−kt) [10]: 0.043
- GSH depletion in murine hepatocytes ([11]; in vitro): 50%
- GSH depletion in murine hepatocytes ([11]; in vivo): 60%
- Busulphan AUC corrected for 2 mg/kg ([7]; After NAC, one line per patient): 10385 ng·h/mL and 12350 ng·h/mL and 15230 ng·h/mL and 10043 ng·h/mL and 19445 ng·h/mL and 12828 ng·h/mL
- AUC ([7]; human, 2 mg/kg, Busulphan AUC corrected for 2 mg/kg, After NAC, one line per patient): 14800 ng·h/mL
- AUC ([7]; human, oral, 4 mg/kg/day, patients no 2, 4 and 8, in this order, before NAC, read-out: AUC after the first dose of busulphan): 20500 ng·h/mL
- AUC ([7]; human, oral, patients no 2, 4 and 8, in this order, doses reduced by 35, 15 and 30%, read-out: mean values of the AUC's during doses 4-8): 11400 ng·h/mL
- AUC after the first dose of busulphan ([7]; patients no 2, 4 and 8, in this order, before NAC): 15527 ng·h/mL and 16122 ng·h/mL
- mean values of the AUC's during doses 4-8 ([7]; patients no 2, 4 and 8, in this order, doses reduced by 35, 15 and 30%): 10551 ng·h/mL and 12122 ng·h/mL
- myelosuppression (CFU-GM colony-formation assay) ([2]; liposomal busulphan 37±1.4 mg/kg ip once a day for 4 days): stable myelosuppression on days 3 through 12
- I-AUC100 (AUC inhibiting colony formation by 100%) ([4]; CFU-GM, bone marrow donors BM 1-5 and Mean): 69.33 µg·h/mL and 56.01 µg·h/mL and 74.14 µg·h/mL and 69.46 µg·h/mL and 74.38 µg·h/mL

Source: patent publication US20080131498A1, “PHARMACEUTICAL COMPOSITION, A METHOD OF PREPARING IT AND A METHOD OF TREATMENT BY USE THEREOF” (BUSULIPO AB, priority 1998, published 2008)
